Measurements published in patent US20220087996A1, “Histone acetylase p300 inhibitor and use thereof” (HINOVA PHARMACEUTICALS INC., priority 2018, published 2022).
Read-outs that look alike come from different tables or passages of the source.

System: CWR22RV1 cells
Assay: Inhibition of proliferation of CWR22RV1 cells (CCK-8)
Assay type: cell-based, human
Conditions: 6 days culture
Experimental: 1) CWR22RV1 cells were subcultured in cell culture medium, and the cells in good growth condition were seeded in a 96-well plate, 80 μL for each well, and the cell number in each well was 1500. The plate was incubated overnight in a 37° C., 5% CO2 cell incubator. 2) The drug was prepared as 30 mM stock solution with dimethyl sulfoxide (DMSO). Prior to use, the stock solution was diluted 3 times with DMSO, and then further diluted as 3-fold gradient to obtain 9 concentration gradients. Then, each concentration of compound was diluted 200 times with the culture solution (ensuring that the DMSO concentration in the culture system was 0.1%), and two replicate wells were set for each concentration. 20 μL of diluted compound solution was added to the cell culture well (with final concentrations of 10 μM, 3.3 μM. 1.1 μM . . . ), and the plate was gently shaken to mix. In addition, 3 negative control wells containing only cells and 3 blank control wells containing only culture medium were included (6 wells were each added 20 μL DMSO diluted 200 times with culture medium). 2. Result detection: (1) After culturing for 6 days, 10 μL CCK-8 was added to each well, and the plate was continually cultured in a 37° C., 5% CO2 cell incubator for 2.5 h. (2) The absorbance (OD value) was detected at 450 nm using a multifunctional microplate reader. (3) The data were analyzed by Dose-response-inhibition equation in the software GraphPad Prism6, and the IC50 value was obtained.

[1] = Homo sapiens, CWR22Rv1, 144 h, read-out: IC50 against CWR22RV1 cells

Row | Compound | IC50 [1] [nM] | further results
1 | CNC(=O)Nc1ccc2c(c1)CC[C@@]21OC(=O)N(CC(=O)N2CCCc3ccc(C(F)(F)F)cc32)C1=O [Example 300, (R)-1-(2′,4′-dioxo-3′-(2-oxo-2-(7-(trifluoromethyl)-3,4-dihydroquinolin-1(2H)-yl)ethyl)-2,3-dihydrospiro[indene-1,5′-oxazolidine]-5-yl)-3-methylurea] | > 2000 | –
2 | CNC(=O)Nc1ccc2c(c1)CC[C@@]21OC(=O)N(CC(=O)N2CCCc3cc(-c4cnn(C)c4)ccc32)C1=O [Example 302, (R)-1-methyl-3-(3′-(2-(6-(1-methyl-1H-pyrazol-4-yl)-3,4-dihydroquinolin-1 (2H)-yl)-2-oxoethyl)-2′,4′-dioxo-2,3-dihydrospiro[indene-1,5′-oxazolidine]-5-yl)urea] | > 2000 | –
3 | CNC(=O)Nc1ccc2c(c1)CC[C@@]21OC(=O)N(CC(=O)N2CCCC2c2ccccc2)C1=O (stereo partly drawn) [Example 303, 1-((1R)-2′,4′-dioxo-3′-(2-oxo-2-(2-phenylpyrrolidin-1-yl)ethyl)-2,3-dihydrospiro[indene-1,5′-oxazolidine]-5-yl)-3-methylurea] | 500 to 2000 | –
4 | CNC(=O)Nc1ccc2c(c1)CC[C@@]21OC(=O)N(CC(=O)N2Cc3cccnc3C2)C1=O [Example 304, (R)-1-(2′,4′-dioxo-3′-(2-oxo-2-(5H-pyrrolo[3,4-b]pyridin-6(7H)-yl)ethyl)-2,3-dihydrospiro[indene-1,5′-oxazolidine]-5-yl)-3-methylurea] | > 2000 | –
5 | CNC(=O)Nc1ccc2c(c1)CC[C@]21OC(=O)N(CC(=O)N2Cc3cccnc3C2)C1=O [Example 305, (S)-1-(3′-(2-(5,7-dihydro-6H-pyrrolo[3,4-b]pyridin-6-yl)-2-oxoethyl)-2′,4′-dioxo-2,3-dihydrospiro[indene-1,5′-oxazolidine]-5-yl)-3-methylurea] | > 2000 | –
6 | CNC(=O)Nc1ccc2c(c1)CC[C@@]21OC(=O)N(CC(=O)N2CCC[C@@H]2c2ccccc2)C1=O [Example 306, 1-((R)-2′,4′-dioxo-3′-(2-oxo-2-((R)-2-phenylpyrrolidin-1-yl)ethyl)-2,3-dihydrospiro[indene-1,5′-oxazolidine]-5-yl)-3-methylurea] | > 2000 | –
7 | Cc1noc(C)c1-c1ccc2c(c1)C1(CC1)CC21OC(=O)N(CC(=O)N(Cc2ccc(F)cc2)[C@@H](C)C(F)(F)F)C1=O (stereo partly drawn) [Example 308, 2-(5-(3,5-dimethylisoxazol-4-yl)-2′,4′-dioxo-2,3-dihydrospiro[cyclopropane-indene-1,5′-oxazole]-3′-yl)-N-(4-fluorobenzyl)-N—((S)-1,1,1-trifluoropropan-2-yl)acetamide] | ≤ 500 | IC50 (Homo sapiens, CWR22Rv1, 144 h, read-out: IC50 against CWR22RV1 cells (text)): ≤ 500 nM
8 | CNC(=O)Nc1ccc2c(c1)CC[C@]21OC(=O)N(CC(=O)N2CCC[C@@H]2c2ccccc2)C1=O [Example 309, 1-((S)-2′,4′-dioxo-3′-(2-oxo-2-((R)-2-phenylpyrrolidin-1-yl)ethyl)-2,3-dihydrospiro[indene-1,5′-oxazolidine]-5-yl)-3-methylurea] | 500 to 2000 | –
9 | CNC(=O)Nc1ccc2c(c1)CC[C@]21OC(=O)N(CC(=O)N2CCC[C@H]2c2ccccc2)C1=O [Example 310, 1-((S)-2′,4′-dioxo-3′-(2-oxo-2-((S)-2-phenylpyrrolidin-1-yl)ethyl)-2,3-dihydrospiro[indene-1,5′-oxazolidine]-5-yl)-3-methylurea] | > 2000 | –
10 | CNC(=O)Nc1ccc2c(c1)CC[C@]21OC(=O)N(CC(=O)N2CCc3ccccc3C2)C1=O [Example 311, (S)-1-(3′-(2-(3,4-dihydroisoquinolin-2(1H)-yl)-2-oxoethyl)-2′,4′-dioxo-2,3-dihydrospiro[indene-1,5′-oxazolidine]-5-yl)-3-methylurea] | > 2000 | –
11 | CNC(=O)Nc1ccc2c(c1)CC[C@]21OC(=O)N(CC(=O)N2C[C@H]3C[C@@H]2CO3)C1=O [Example 315, 1-((S)-3′-(2-((1R,4R)-2-oxa-5-azabicyclo[2.2.1]heptan-5-yl)-2-oxoethyl)-2′,4′-dioxo-2,3-dihydrospiro[indene-1,5′-oxazolidine]-5-yl)-3-methylurea] | > 2000 | –
12 | CNC(=O)Nc1ccc2c(c1)CC[C@]21OC(=O)N(Cc2nnc(-c3ccccc3)o2)C1=O [Example 317, (S)-1-(2′,4′-dioxo-3′-((5-phenyl-1,3,4-oxadiazol-2-yl)methyl)-2,3-dihydrospiro[indene-1,5′-oxazolidine]-5-yl)-3-methylurea] | > 2000 | –
13 | CNC(=O)Nc1ccc2c(c1)CC[C@@]21OC(=O)N(CC(=O)N2CCCC2c2cccc(C)c2)C1=O (stereo partly shown) [Example 318] | > 2000 | –
14 | CNC(=O)Nc1ccc2c(c1)CC[C@@]21OC(=O)N(CC(=O)N2CCCCC2c2ccccc2)C1=O (stereo partly drawn) [Example 322, 1-((1R)-2′,4′-dioxo-3′-(2-oxo-2-(2-phenylpiperidin-1-yl)ethyl)-2,3-dihydrospiro[indene-1,5′-oxazolidine]-5-yl)-3-methylurea] | > 2000 | –
15 | CNC(=O)Nc1ccc2c(c1)CC[C@@]21OC(=O)N(CC(=O)N2CCCC2c2ccccc2F)C1=O (stereo partly drawn) [Example 323, 1-((1R)-3′-(2-(2-(2-fluorophenyl)pyrrolidin-1-yl)-2-oxoethyl)-2′,4′-dioxo-2,3-dihydrospiro[indene-1,5′-oxazolidine]-5-yl)-3-methylurea] | > 2000 | –
16 | CNC(=O)Nc1ccc2c(c1)CC[C@@]21OC(=O)N(CC(=O)N2CCCC2c2ccccc2C)C1=O (stereo partly shown) [Example 324] | – | IC50 (read-out: IC50 against CWR22RV1 cells): > 2000 nM
17 | CNC(=O)Nc1ccc2c(c1)CC[C@@]21OC(=O)N(CC(=O)N2CCC[C@H]2C(=O)N2CC3CC2CO3)C1=O (stereo partly drawn) [Example 328, 1-(3′-(2-((2S)-2-(2-oxa-5-azabicyclo[2.2.1]heptan-5-carbonyl)pyrrolidin-1-yl)-2-oxoethyl)-2′,4′-dioxo-2,3-dihydrospiro[indene-1,5′-oxazolidine]-5-yl)-3-methylurea] | > 2000 | –
18 | CNC(=O)Nc1ccc2c(c1)CCC21OC(=O)N(CC(=O)N2CCCC2c2ncc[nH]2)C1=O (stereo not shown) [Example 330, 1-(3′-(2-(2-(1H-imidazol-2-yl)pyrrolidin-1-yl)-2-oxoethyl)-2′,4′-dioxo-2,3-dihydrospiro[indene-1,5′-oxazolidine]-5-yl)-3-methylurea] | > 2000 | –
19 | CNC(=O)Nc1ccc2c(c1)CC[C@@]21OC(=O)N(CC(=O)N2CCC[C@H]2C#N)C1=O [Example 331, 1-((R)-3′-(2-((S)-2-cyanopyrrolidin-1-yl)-2-oxoethyl)-2′,4′-dioxo-2,3-dihydrospiro[indene-1,5-oxazolidine]-5-yl)-3-methylurea] | > 2000 | –
20 | CNC(=O)Nc1ccc2c(c1)CC[C@@]21OC(=O)N(CC(=O)N2CCCC2c2ccccn2)C1=O (stereo partly drawn) [Example 332, 1-((1R)-2′,4′-dioxo-3′-(2-oxo-2-(2-(pyridin-2-yl)pyrrolidin-1-yl)ethyl)-2,3-dihydrospiro[indene-1,5′-oxazolidine]-5-yl)-3-methylurea] | > 2000 | –
21 | CNC(=O)Nc1ccc2c(c1)CC[C@@]21OC(=O)N(CC(=O)N2CCC[C@H]2c2cc(C)n[nH]2)C1=O [Example 333, 1-methyl-3-((R)-3′-(2-((S)-2-(3-methyl-1H-pyrazol-5-yl)pyrrolidin-1-yl)-2-oxoethyl)-2′,4′-dioxo-2,3-dihydrospiro[indene-1,5′-oxazolidine]-5-yl)urea] | > 2000 | –
22 | CNC(=O)Nc1ccc2c(c1)CC[C@@]21OC(=O)N(CC(=O)N2CCCC2c2cccnc2)C1=O (stereo partly drawn) [Example 334, 1-((1R)-2′,4′-dioxo-3′-(2-oxo-2-(2-(pyridin-3-yl)pyrrolidin-1-yl)ethyl)-2,3-dihydrospiro[indene-1,5′-oxazolidine]-5-yl)-3-methylurea] | > 2000 | –
23 | CNC(=O)Nc1ccc2c(c1)CC[C@@]21OC(=O)N(CC(=O)N2CCCC2c2cccc(OC)c2)C1=O (stereo partly drawn) [Example 335, 1-((1R)-3′-(2-(2-(3-methoxyphenyl)pyrrolidin-1-yl)-2-oxoethyl)-2′,4′-dioxo-2,3-dihydrospiro[indene-1,5′-oxazolidine]-5-yl)-3-methylurea] | > 2000 | –
24 | CNC(=O)Nc1ccc2c(c1)CC[C@@]21OC(=O)N(CC(=O)N2CCCC2c2ccccc2Br)C1=O (stereo partly drawn) [Example 336, 1-((1R)-3′-(2-(2-(2-bromophenyl)pyrrolidin-1-yl)-2-oxoethyl)-2′,4′-dioxo-2,3-dihydrospiro[indene-1,5′-oxazolidine]-5-yl)-3-methylurea] | > 2000 | –
25 | CNC(=O)Nc1ccc2c(c1)CC[C@@]21OC(=O)N(CC(=O)N2C(C)CCC2c2ccc(F)cc2OC)C1=O (stereo partly drawn) [Example 337, 1-((1R)-3′-(2-(2-(4-fluoro-2-methoxyphenyl)-5-methylpyrrolidin-1-yl)-2-oxoethyl)-2′,4′-dioxo-2,3-dihydrospiro[indene-1,5′-oxazolidine]-5-yl)-3-methylurea] | 500 to 2000 | –
26 | CNC(=O)Nc1ccc2c(c1)CC[C@@]21OC(=O)N(CC(=O)N2CCCC2c2ccc(F)cc2OC)C1=O (stereo partly drawn) [Example 340, 1-((1R)-3′-(2-(2-(4-fluoro-2-methoxyphenyl)pyrrolidin-1-yl)-2-oxoethyl)-2′,4′-dioxo-2,3-dihydrospiro[indene-1,5′-oxazolidine]-5-yl)-3-methylurea] | > 2000 | –
27 | CNC(=O)Nc1ccc2c(c1)CC[C@@]21OC(=O)N(CC(=O)N2CCCC2c2ccc(OC)cc2OC)C1=O (stereo partly drawn) [Example 341, 1-((1R)-3′-(2-(2-(2,4-dimethoxyphenyl)pyrrolidin-1-yl)-2-oxoethyl)-2′,4′-dioxo-2,3-dihydrospiro[indene-1,5′oxazolidin]-5-yl)-3-methylurea] | > 2000 | –
